As usually defined, the IC50 is the concentration that gives 50% inhibition.

The assay deals with T1, CCR1 (Homo sapiens, UniProt P32246).
T1 sequence (P32246 1-355): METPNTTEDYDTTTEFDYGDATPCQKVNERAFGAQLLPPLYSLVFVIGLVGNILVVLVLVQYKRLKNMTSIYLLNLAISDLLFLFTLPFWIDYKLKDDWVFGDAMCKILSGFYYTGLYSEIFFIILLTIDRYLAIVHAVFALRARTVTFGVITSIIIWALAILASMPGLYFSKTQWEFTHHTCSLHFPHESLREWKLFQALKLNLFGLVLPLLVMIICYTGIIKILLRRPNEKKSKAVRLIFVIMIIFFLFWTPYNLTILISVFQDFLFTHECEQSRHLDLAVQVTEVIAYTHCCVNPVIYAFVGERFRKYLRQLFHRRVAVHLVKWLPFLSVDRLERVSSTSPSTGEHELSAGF
Nature of the assay: Method B: calcium flux in CCR1 transfected cells (Calcium 4 dye, […] FDSS6000), block of the CCR1/MIP-1α interaction. The assay is classed as cell-based. The following applies: Method B: Calcium 4 dye, MIP-1alpha at EC80. On the procedure: Compounds are assessed for the ability to block the interaction of CCR1 and MIP-1α in a functional cellular assay measuring calcium flux in CCR1 transfected cells.
Method B: Non-adherent cells purchased from Chemicon Corporation (HTS005C), stably expressing recombinant CCR1 and G-alpha-16 are grown in RPMI 1640 medium (Mediatech 10-080-CM) supplemented with 10% FBS, 0.4 mg/mL Geneticin and penicillin/streptomycin. On the day of the assay, the cells are loaded with Calcium 4 dye (Molecular Devices R7448) with Probenecid (Invitrogen P346400) at 8E5 cells/mL for 1 hour at room temperature. After 1 hour, they are seeded in a 384-well tissue culture-treated plate at a density of 20,000 cells/well. Appropriately diluted test compound is added to the well to achieve a top concentration of 3,000 nM (diluted 4-fold with 10 doses total). The final concentration of DMSO is 1%. The buffer is HBSS (Invitrogen 14025) with 20 mM HEPES at pH 7.4. The cells incubate 30 minutes at 37 C and then 30 minutes at room temperature. The plates are transferred to the […] FDSS6000 where MIP-1alpha in 1% BSA is added at the EC80 final concentration. All plates must be read within 4 hours of the start of dye-loading. Wells+/−MIP-1alpha containing diluted DMSO instead of compound serve as the controls. Data are analyzed using Activity Base software.

With `CCC(NC(=O)c1cncc2c1cnn2-c1ccc(F)cc1)C1CCN(C(=O)OC(C)(C)C)CC1` (centres unmarked) [4-(1-{[1-(4-Fluorophenyl)-1H-pyrazolo[3,4-c]pyridine-4-carbonyl]-amino}-propyl)-piperidine-1-carboxylic acid tert-butyl ester], the concentration for half-maximal inhibition (IC50) stood at 4 nM.
Turning to `O=C(N[C@@H](CO)c1ccnc(Br)c1)c1cncc2c1cnn2-c1ccc(F)cc1` [1-(4-Fluorophenyl)-1H-pyrazolo[3,4-c]pyridine-4-carboxylic acid [(R)-1-(2-bromo-pyridin-4-yl)-2-hydroxy-ethyl]-amide], the IC50 was 2 nM.
The same measure for `C[C@H](NC(=O)c1cncc2c1cnn2-c1ccc(F)cc1)c1ccnc(S(=O)(=O)CCCO)c1` [1-(4-Fluorophenyl)-1H-pyrazolo[3,4-c]pyridine-4-carboxylic acid {(S)-1-[2-(3-hydroxy-propane-1-sulfonyl)-pyridin-4-yl]-ethyl}-amide]: 38 nM; for `CCS(=O)(=O)c1cncc([C@H](C)NC(=O)c2cncc3c2cnn3-c2ccc(F)cc2)c1` [1-(4-Fluorophenyl)-1H-pyrazolo[3,4-c]pyridine-4-carboxylic acid [(S)-1-(5-ethanesulfonyl-pyridin-3-yl)-ethyl]-amide]: 4 nM.
`CCOC(=O)CS(=O)(=O)c1cc(CNC(=O)c2cncc3c2cnn3-c2ccc(F)cc2)ccn1` [[4-({[1-(4-Fluorophenyl)-1H-pyrazolo[3,4-c]pyridine-4-carbonyl]-amino}-methyl)-pyridine-2-sulfonyl]-acetic acid ethyl ester]: the 50% inhibitory concentration (IC50) stood at 4 nM.
To `CC[C@@H](NC(=O)c1cncc2c1cnn2-c1ccc(F)cc1)c1cc(S(C)(=O)=O)cn1C` [1-(4-Fluorophenyl)-1H-pyrazolo[3,4-c]pyridine-4-carboxylic acid [(R)-1-(4-methanesulfonyl-1-methyl-1H-pyrrol-2-yl)-propyl]-amide] belongs 7 nM; to `CC[C@H](NC(=O)c1cncc2c1cnn2-c1ccc(F)cc1)c1ccnc(-c2nnn[nH]2)c1` [1-(4-Fluorophenyl)-1H-pyrazolo[3,4-c]pyridine-4-carboxylic acid {(S)-1-[2-(1H-tetrazol-5-yl)-pyridin-4-yl]-propyl}-amide], 3 nM.
To `COc1cc([C@H](C)NC(=O)c2cncc3c2cnn3-c2ccc(F)cc2)cc(S(C)(=O)=O)n1` [1-(4-Fluorophenyl)-1H-pyrazolo[3,4-c]pyridine-4-carboxylic acid [(S)-1-(2-methanesulfonyl-6-methoxy-pyridin-4-yl)-ethyl]-amide] belongs 0.4 nM; to `CCC(NC(=O)c1cncc2c1cnn2-c1ccc(F)cc1)c1nc(C(=O)NCC#N)c(C)o1` (centres unmarked) [1-(4-Fluorophenyl)-1H-pyrazolo[3,4-c]pyridine-4-carboxylic acid {1-[4-(cyanomethyl-carbamoyl)-5-methyl-oxazol-2-yl]-propyl}-amide], 18 nM; to `CC[C@@H](NC(=O)c1cncc2c1cnn2-c1ccc(F)cc1)c1ccc(OC)c(S(C)(=O)=O)c1` [1-(4-Fluorophenyl)-1H-pyrazolo[3,4-c]pyridine-4-carboxylic acid [(R)-1-(3-methanesulfonyl-4-methoxy-phenyl)-propyl]-amide], 0.2 nM.
With `CC[C@H](NC(=O)c1cncc2c1cnn2-c1ccc(F)cc1)c1ccnc(S(N)(=O)=O)c1` [1-(4-Fluorophenyl)-1H-pyrazolo[3,4-c]pyridine-4-carboxylic acid [(S)-1-(2-sulfamoyl-pyridin-4-yl)-propyl]-amide], the IC50 worked out at 0.4 nM.
To `CC[C@H](NC(=O)c1cncc2c1cnn2-c1ccc(F)cc1)c1ccnc(N(C)CCOC)c1` [1-(4-Fluorophenyl)-1H-pyrazolo[3,4-c]pyridine-4-carboxylic acid ((S)-1-{2-[(2-methoxy-ethyl)-methyl-amino]-pyridin-4-yl}-propyl)-amide] belongs 1 nM; to `CS(=O)(=O)c1cc(CNC(=O)c2cncc3c2cnn3-c2ccc(F)cc2)cc(NCC(N)=O)n1` [1-(4-Fluorophenyl)-1H-pyrazolo[3,4-c]pyridine-4-carboxylic acid [2-(carbamoylmethyl-amino)-6-methanesulfonyl-pyridin-4-ylmethyl]-amide], 11 nM.
As for `CC[C@H](NC(=O)c1cncc2c1cnn2-c1ccc(F)cc1)c1nc(C(=O)OC)co1` [2-((S)-1-{[1-(4-Fluorophenyl)-1H-pyrazolo[3,4-c]pyridine-4-carbonyl]-amino}-propyl)-oxazole-4-carboxylic acid methyl ester], the IC50 came out at 38 nM.
To `CC[C@H](NC(=O)c1cncc2c1cnn2-c1ccc(F)cc1)c1cnc(SC)o1` [1-(4-Fluorophenyl)-1H-pyrazolo[3,4-c]pyridine-4-carboxylic acid [(S)-1-(2-methylsulfanyl-oxazol-5-yl)-propyl]-amide] belongs 1 nM.
To `CCC(NC(=O)c1cncc2c1cnn2-c1ccc(F)cc1)c1nc(C(=O)NCC(=O)OC)c(C)o1` (centres unmarked) [{[2-(1-{[1-(4-Fluorophenyl)-1H-pyrazolo[3,4-c]pyridine-4-carbonyl]-amino}-propyl)-5-methyl-oxazole-4-carbonyl]-amino}-acetic acid methyl ester] belongs 26 nM; to `CS(=O)(=O)c1cc([C@H](CCO)NC(=O)c2cncc3c2cnn3-c2ccc(F)cc2)ccn1` [1-(4-Fluorophenyl)-1H-pyrazolo[3,4-c]pyridine-4-carboxylic acid [(S)-3-hydroxy-1-(2-methanesulfonyl-pyridin-4-yl)-propyl]-amide], 12 nM; to `CCOC(=O)Cn1cc([C@H](CC)NC(=O)c2cncc3c2cnn3-c2ccc(F)cc2)cn1` [[4-((S)-1-{[1-(4-Fluorophenyl)-1H-pyrazolo[3,4-c]pyridine-4-carbonyl]-amino}-propyl)-pyrazol-1-yl]-acetic acid ethyl ester], 25 nM.
As to `CC[C@H](NC(=O)c1cncc2c1cnn2-c1ccc(F)cc1)c1nc(Br)cs1` [1-(4-Fluorophenyl)-1H-pyrazolo[3,4-c]pyridine-4-carboxylic acid [(S)-1-(4-bromo-thiazol-2-yl)-propyl]-amide], the IC50 amounted to 0.8 nM.
With `CC[C@H](NC(=O)c1cncc2c1cnn2-c1ccc(F)cc1)c1cc(NCC(N)=O)nc(S(C)(=O)=O)c1` [1-(4-Fluorophenyl)-1H-pyrazolo[3,4-c]pyridine-4-carboxylic acid {(S)-1-[2-(carbamoylmethyl-amino)-6-methanesulfonyl-pyridin-4-yl]-propyl}-amide], the IC50 turned out to be 0.4 nM.
As for `CC[C@H](NC(=O)c1cncc2c1cnn2-c1ccc(F)cc1)c1cc(S(C)(=O)=O)cs1` [1-(4-Fluorophenyl)-1H-pyrazolo[3,4-c]pyridine-4-carboxylic acid [(S)-1-(4-methanesulfonyl-thiophen-2-yl)-propyl]-amide], the IC50 is 0.1 nM.
The same measure for `CC[C@H](NC(=O)c1cncc2c1cnn2-c1ccc(F)cc1)c1cccc(Cl)c1` [1-(4-Fluorophenyl)-1H-pyrazolo[3,4-c]pyridine-4-carboxylic acid [(S)-1-(3-chlorophenyl)-propyl]-amide]: 0.4 nM; for `CN(CC(N)=O)c1cc(CNC(=O)c2cncc3c2cnn3-c2ccc(F)cc2)cc(S(C)(=O)=O)n1` [1-(4-Fluorophenyl)-1H-pyrazolo[3,4-c]pyridine-4-carboxylic acid [2-(carbamoylmethyl-methyl-amino)-6-methanesulfonyl-pyridin-4-ylmethyl]-amide]: 3 nM.

Values taken from patent US8063065B2, “Azaindazole compounds as CCR1 receptor antagonists” (Boehringer Ingelheim International GmbH, priority 2008, dated 2011).
